Assay [1] deals with T1, CaM76-148 (C-domain of CaM) (Paramecium tetraurelia, UniProt P07463). The conditions noted are these: read-out: Kd, Ca^2+-saturated CaM76-148 binding, stoichiometric binding, only an upper limit for Kd, fluorescence anisotropy, pH 7.4, 22 °C.
The target of assay [2] is T2, CaM1-148 (full-length CaM) (Paramecium tetraurelia, UniProt P07463). Put plainly: Fluorescence anisotropy titration of Fl-Nav1.2IQp with CaM1-148. Type of assay: binding. (In general: In fluorescence polarisation assays a small probe gives low polarisation when free and higher when bound to something large.)
In assay [3] the target is T1, CaM76-148 (C-domain of CaM). Put plainly: biochemical.
Assay [4] deals with T2, CaM1-148 (full-length CaM). Put plainly: Ca2+ titration of apo CaM1-148:Nav1.2IQp complex monitored by 15N/1H-HSQC. Type of assay: biochemical. As to conditions: 15N/1H-HSQC titration, pH 6.8.
For assay [5], the target named is CaM1-80 (N-domain of CaM) (Paramecium tetraurelia, UniProt P07463). The assay is described as follows: Equilibrium Ca2+ titration of CaM1-80 with Nav1.2IQp. Type of assay: biochemical. The conditions noted are these: 6 μM CaM, 9 μM Nav1.2IQp, 22 °C; phenylalanine fluorescence.
The subject of assay [6] is CaM. As to conditions: apo CaM compared with (Ca^2+)4-CaM.
The target of assay [7] is T2, CaM1-148 (full-length CaM). Put plainly: Equilibrium Ca2+ titration of CaM1-148 with Nav1.2IQp. Type of assay: biochemical.
In assay [8] the test system is CaM. The conditions noted are these: ref Mori et al., 2000; cited from earlier work.
The subject of assay [9] is (Ca^2+)4-CaM (CaM1-148). Type of assay: binding, Paramecium. The conditions noted are these: Nav1.2_1913-1938 in 6-fold excess, fluorescence anisotropy (Figure S6A).

Like-named read-outs stand apart in the source and are kept apart here. Where no end group is shown, it is not given here. Bounds are passed on as bounds.

What is called Kd is the constant that tells how readily two partners part at equilibrium.

As for “KRKQEEVSAIVIQRAYRRYLLKQKVKK [Fl-Nav1.2IQp]”, the Kd in [1], in [2] and in assay [3] was not above 10 nM in each case.
Take KRKQEEVSAIVIQRAYRRYLLKQKVKK [Nav1.2IQp]: the “Ca^2+-binding affinity of sites I and II relative to sites III and IV of CaM1-148 bound to Nav1.2IQp” value in assay [4] was “slightly more favorable”. Besides, the “effect on Ca^2+ binding to sites I and II of CaM1-80” value in assay [5] was “little effect”. Further, in assay [6], the “relative affinity for apo CaM versus (Ca^2+)4-CaM” value was “higher affinity for apo CaM than (Ca^2+)4-CaM”. In assay [7] (6 μM CaM, 9 μM Nav1.2IQp, 22 °C, phenylalanine fluorescence), the “effect on Ca^2+ binding to sites I and II of CaM1-148” value is reported as “little effect”. The “lowering of overall Ca^2+-binding affinity of CaM (free energy)” value in assay [7] (overall, CaM, with versus without Nav1.2IQp (Figure 2D)) is 4.03 kcal/mol.
With “QRAYRRYLLKQKVKKVSSIYKKDKGK [Nav1.2BAA-1913-1938]”, the “binding to (Ca^2+)4-CaM” value in [8] is recorded as “binds to (Ca^2+)4-CaM”. For the same sequence, the “simultaneous binding of Nav1.2IQp and Nav1.2_1913-1938 to (Ca^2+)4-CaM” value in [9] is reported as “no evidence for simultaneous binding”.

The record behind these values is PMC3094505 (Structure (London, England : 1993), 2011).
